Values of other authors in US20200338016A1, “COMBINATION BROAD-SPECTRUM ANTIBIOTIC PREPARATIONS FOR DRUG-RESISTANT PATHOGENS” (priority 2019, published 2020).

Test system: Mycobacterim tuberculosis
Details: ten strains of Mycobacterim tuberculosis, including six resistant to antibiotics

Compound | concentration that kills
O=C(O[C@@H]1Cc2c(O)cc(O)cc2O[C@@H]1c1cc(O)c(O)c(O)c1)c1cc(O)c(O)c(O)c1 [EGCG, epigallocatechin gallate] | 1024 micrograms per milliliter
O=C(O)/C=C/c1ccc(O)c(O)c1 [caffeic acid] | 1024 micrograms per milliliter
O=c1c(O)c(-c2ccc(O)c(O)c2)oc2cc(O)cc(O)c12 [quercetin] | 1024 micrograms per milliliter
